In patent US20260297085A1, “1 H-PYRROLO[2,3-B]PYRIDIN-4-YL]-2-OXOPYRROLIDINE-3-CARBONITRILE DERIVATIVES AS TYROSINE KINASE 2 (TYK2) INHIBITORS FOR THE TREATMENT OF INFLAMMATORY DISEASES” (BIOGEN MA INC., priority 2023, published 2026):
Counter-ions that a name gives are not always drawn.

Key:
Settings in all cases: JH1 kinase domain, ADP-Glo
[1] = target: T1, human TYK2 kinase domain (JH1) (Homo sapiens, UniProt P29597); assay: JH1 biochemical assay for TYK2 (ADP-Glo kinase assay, recombinant JH1 catalytic domain, JAK3-974 peptide, 10 μM ATP)
T1 construct: recombinantly generated catalytic kinase (also known as JH1) domain of human JAK1, JAK2, JAK3 and TYK2
T1 sequence (P29597 897-1176 limits assumed): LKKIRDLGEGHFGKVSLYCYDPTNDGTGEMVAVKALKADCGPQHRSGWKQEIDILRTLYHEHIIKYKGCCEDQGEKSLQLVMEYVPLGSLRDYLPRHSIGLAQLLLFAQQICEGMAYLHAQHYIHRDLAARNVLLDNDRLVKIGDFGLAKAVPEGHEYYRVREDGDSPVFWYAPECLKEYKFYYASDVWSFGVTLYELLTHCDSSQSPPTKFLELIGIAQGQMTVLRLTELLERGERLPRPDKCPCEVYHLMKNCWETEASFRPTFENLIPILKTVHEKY
Description: (§1) Compounds of the disclosure were assessed for their ability to inhibit TYK2, JAK1, JAK2, and JAK3 activity. The inhibitory properties of the compounds of the disclosure described herein can be evidenced by testing in any one of the following protocols.
(§2) The kinase activity of recombinantly generated catalytic kinase (also known as JH1) domain of human JAK1, JAK2, JAK3 and TYK2 were evaluated in a plate-based assay using the ADP-Glo™ Kinase Assay platform. Specifically, 4 nM of recombinant JAK1 kinase domain is used to phosphorylate 50 μM of a JAK3-342 (sequence ALVDGYFRLTT) peptide in the presence of 35 μM ATP. Catalytic activities of recombinant JAK2, JAK3 and TYK2 kinase domain (0.2, 0.3 and 2 nM, respectively) are evaluated by the phosphorylation status of the JAK3-974 (50 μM; sequence LPLDKDYYVVR) peptide with the addition of ATP (15, 4 and 10 μM, respectively). The reactions proceed for 100 minutes and the catalytic activity is quantified by first depleting the unused ATP, converting the hydrolyzed ADP into ATP to generate luminescence in a luciferase reaction; which is the basis of the ADP-Glo platform. Compounds are tested at either 10 μM or 1 μM top concentration, 11 points of 3-fold dilution. The data is normalized and the percent activity versus log concentration of compound is fitted with a 4-parameter logistic model to generate a curve and an IC50 value.

[2] = target: T2, human JAK1 kinase domain (JH1) (Homo sapiens, UniProt P23458); assay: JH1 biochemical assay for JAK1 (ADP-Glo kinase assay, recombinant JH1 catalytic domain, JAK3-342 peptide, 35 μM ATP)
T2 construct: recombinantly generated catalytic kinase (also known as JH1) domain of human JAK1, JAK2, JAK3 and TYK2
Description: as §1, §2

[3] = target: T3, human JAK2 kinase domain (JH1) (Homo sapiens, UniProt O60674); assay: JH1 biochemical assay for JAK2 (ADP-Glo kinase assay, recombinant JH1 catalytic domain, JAK3-974 peptide, 15 μM ATP)
T3 construct: recombinantly generated catalytic kinase (also known as JH1) domain of human JAK1, JAK2, JAK3 and TYK2
Description: as §1, §2

[4] = target: T4, human JAK3 kinase domain (JH1) (Homo sapiens, UniProt P52333); assay: JH1 biochemical assay for JAK3 (ADP-Glo kinase assay, recombinant JH1 catalytic domain, JAK3-974 peptide, 4 μM ATP)
T4 construct: recombinantly generated catalytic kinase (also known as JH1) domain of human JAK1, JAK2, JAK3 and TYK2
Description: as §1, §2

T4 sequence (P52333 822-1111 limits assumed): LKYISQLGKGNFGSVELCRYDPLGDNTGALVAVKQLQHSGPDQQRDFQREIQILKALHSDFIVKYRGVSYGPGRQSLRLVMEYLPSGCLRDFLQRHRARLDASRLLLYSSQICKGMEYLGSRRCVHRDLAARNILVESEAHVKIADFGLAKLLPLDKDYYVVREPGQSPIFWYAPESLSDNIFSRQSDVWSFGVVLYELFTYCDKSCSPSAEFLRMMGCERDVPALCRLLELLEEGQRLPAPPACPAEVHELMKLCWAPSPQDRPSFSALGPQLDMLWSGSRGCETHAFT
T2 sequence (P23458 875-1153 limits assumed): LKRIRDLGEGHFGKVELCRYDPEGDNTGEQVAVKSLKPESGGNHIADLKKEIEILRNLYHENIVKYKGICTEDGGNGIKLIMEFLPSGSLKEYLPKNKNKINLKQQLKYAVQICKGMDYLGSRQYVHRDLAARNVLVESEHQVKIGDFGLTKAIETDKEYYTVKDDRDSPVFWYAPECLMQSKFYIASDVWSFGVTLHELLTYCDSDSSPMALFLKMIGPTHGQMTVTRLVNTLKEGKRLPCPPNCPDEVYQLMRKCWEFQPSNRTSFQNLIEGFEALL
T3 sequence (O60674 849-1124 limits assumed): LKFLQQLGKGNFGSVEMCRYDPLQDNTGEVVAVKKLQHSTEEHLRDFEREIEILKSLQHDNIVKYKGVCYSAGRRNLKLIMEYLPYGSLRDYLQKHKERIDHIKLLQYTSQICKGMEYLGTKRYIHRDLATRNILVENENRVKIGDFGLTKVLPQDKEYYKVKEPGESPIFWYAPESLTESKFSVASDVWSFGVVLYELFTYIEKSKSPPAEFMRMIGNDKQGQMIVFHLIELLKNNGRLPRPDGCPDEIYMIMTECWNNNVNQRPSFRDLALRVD

Compound	IC50 [1] [nM]	IC50 [2] [nM]	IC50 [3] [nM]	IC50 [4] [nM]
C[C@@H]1CN(c2ccnn3cc(-c4cccc5cnn(C)c45)cc23)C(=O)[C@]1(C#N)C1CC1 [Example 78, (3R,4S)-3-cyclopropyl-4-methyl-1-(6-(1-methyl-1H-indazol-7-yl)pyrrolo[1,2-b]pyridazin-4-yl)-2-oxopyrrolidine-3-carbonitrile]	> 100	> 10000	> 10000	> 10000
Cc1ncc(-c2cc3c(N4C[C@@H](C)[C@@](C#N)(C5CC5)C4=O)ccnn3c2)cn1 [Example 80, (3R,4S)-3-cyclopropyl-4-methyl-1-(6-(2-methylpyrimidin-5-yl)pyrrolo[1,2-b]pyridazin-4-yl)-2-oxopyrrolidine-3-carbonitrile]	50 to 100	1000 to 5000	1000 to 5000	1000 to 5000
C[C@@H]1CN(c2ccnn3cc(-c4cncc(Cl)c4)cc23)C(=O)[C@]1(C#N)C1CC1 [Example 87, (3R,4S)-1-(6-(5-chloropyridin-3-yl)pyrrolo[1,2-b]pyridazin-4-yl)-3-cyclopropyl-4-methyl-2-oxopyrrolidine-3-carbonitrile]	20 to 50	5000 to 10000	> 10000	> 10000
C[C@@H]1CN(c2ccnn3cc(-c4cncn4C)cc23)C(=O)[C@]1(C#N)C1CC1 [Example 89, (3R,4S)-3-cyclopropyl-4-methyl-1-(6-(1-methyl-1H-imidazol-5-yl)pyrrolo[1,2-b]pyridazin-4-yl)-2-oxopyrrolidine-3-carbonitrile]	20 to 50	1000 to 5000	1000 to 5000	1000 to 5000
C[C@@H]1CN(c2ccnn3cc(-c4cncnc4)cc23)C(=O)[C@]1(C#N)C1CC1 [Example 92, (3R,4S)-3-cyclopropyl-4-methyl-2-oxo-1-(6-(pyrimidin-5-yl)pyrrolo[1,2-b]pyridazin-4-yl)pyrrolidine-3-carbonitrile]	50 to 100	1000 to 5000	5000 to 10000	1000 to 5000
C[C@@H]1CN(c2ccnn3cc(-c4cnn(C)n4)cc23)C(=O)[C@]1(C#N)C1CC1 [Example 99, (3R,4S)-3-cyclopropyl-4-methyl-1-(6-(2-methyl-2H-1,2,3-triazol-4-yl)pyrrolo[1,2-b]pyridazin-4-yl)-2-oxopyrrolidine-3-carbonitrile trifluoroacetate]	20 to 50	100 to 1000	1000 to 5000	100 to 1000
C[C@@H]1CN(c2ccnn3cc(-c4cc(C(F)(F)F)nn4C)cc23)C(=O)[C@]1(C#N)C1CC1 [Example 107, (3R,4S)-3-cyclopropyl-4-methyl-1-(6-(1-methyl-3-(trifluoromethyl)-1H-pyrazol-5-yl)pyrrolo[1,2-b]pyridazin-4-yl)-2-oxopyrrolidine-3-carbonitrile trifluoroacetate]	20 to 50	1000 to 5000	1000 to 5000	1000 to 5000
C[C@@H]1CN(c2ccnn3cc(-c4nc(C#N)cs4)cc23)C(=O)[C@]1(C#N)C1CC1 [Example 114, 2-(4-((3R,4S)-3-cyano-3-cyclopropyl-4-methyl-2-oxopyrrolidin-1-yl)pyrrolo[1,2-b]pyridazin-6-yl)thiazole-4-carbonitrile trifluoroacetate]	20 to 50	> 10000	> 10000	1000 to 5000
C[C@@H]1CN(c2ccnn3cc(-c4ncn(C)n4)cc23)C(=O)[C@]1(C#N)C1CC1 [Example 115, (3R,4S)-3-cyclopropyl-4-methyl-1-(6-(1-methyl-1H-1,2,4-triazol-3-yl)pyrrolo[1,2-b]pyridazin-4-yl)-2-oxopyrrolidine-3-carbonitrile trifluoroacetate]	> 100	> 10000	> 10000	5000 to 10000

Results, then the compound that gave them:

IC50 [1] [nM]	IC50 [2] [nM]	IC50 [3] [nM]	IC50 [4] [nM]	Compound
20 to 50	> 10000	> 10000	> 10000	COc1cncc(-c2cc3c(N4C[C@@H](C)[C@@](C#N)(C5CC5)C4=O)ccnn3c2)c1 [Example 82, (3R,4S)-3-cyclopropyl-1-(6-(5-methoxypyridin-3-yl)pyrrolo[1,2-b]pyridazin-4-yl)-4-methyl-2-oxopyrrolidine-3-carbonitrile]
20 to 50	1000 to 5000	1000 to 5000	1000 to 5000	COc1ncc(-c2cc3c(N4C[C@@H](C)[C@@](C#N)(C5CC5)C4=O)ccnn3c2)cc1C#N [Example 85, 5-(4-((3R,4S)-3-cyano-3-cyclopropyl-4-methyl-2-oxopyrrolidin-1-yl)pyrrolo[1,2-b]pyridazin-6-yl)-2-methoxynicotinonitrile]
20 to 50	100 to 1000	1000 to 5000	1000 to 5000	C[C@@H]1CN(c2ccnn3cc(-c4cnc(N(C)C)nc4)cc23)C(=O)[C@]1(C#N)C1CC1 [Example 91, (3R,4S)-3-cyclopropyl-1-(6-(2-(dimethylamino)pyrimidin-5-yl)pyrrolo[1,2-b]pyridazin-4-yl)-4-methyl-2-oxopyrrolidine-3-carbonitrile]
20 to 50	1000 to 5000	> 10000	> 10000	COc1cc(-c2cc3c(N4C[C@@H](C)[C@@](C#N)(C5CC5)C4=O)ccnn3c2)c(F)cn1 [Example 94, (3R,4S)-3-cyclopropyl-1-(6-(5-fluoro-2-methoxypyridin-4-yl)pyrrolo[1,2-b]pyridazin-4-yl)-4-methyl-2-oxopyrrolidine-3-carbonitrile]
5 to 20	100 to 1000	100 to 1000	100 to 1000	C[C@@H]1CN(c2ccnn3cc(-c4ccc(N(C)C(=O)OC(C)(C)C)nc4)cc23)C(=O)[C@]1(C#N)C1CC1 [Example 95, tert-butyl (5-(4-((3R,4S)-3-cyano-3-cyclopropyl-4-methyl-2-oxopyrrolidin-1-yl)pyrrolo[1,2-b]pyridazin-6-yl)pyridin-2-yl)(methyl)carbamate]
50 to 100	1000 to 5000	1000 to 5000	5000 to 10000	COc1cc(-c2cc3c(N4C[C@@H](C)[C@@](C#N)(C5CC5)C4=O)ccnn3c2)c(OC)nn1 [Example 98, (3R,4S)-3-cyclopropyl-1-(6-(3,6-dimethoxypyridazin-4-yl)pyrrolo[1,2-b]pyridazin-4-yl)-4-methyl-2-oxopyrrolidine-3-carbonitrile]
50 to 100	1000 to 5000	1000 to 5000	1000 to 5000	C[C@@H]1CN(c2ccnn3cc(-c4cnc5n4CCCC5)cc23)C(=O)[C@]1(C#N)C1CC1 [Example 100, (3R,4S)-3-cyclopropyl-4-methyl-2-oxo-1-(6-(5,6,7,8-tetrahydroimidazo[1,2-a]pyridin-3-yl)pyrrolo[1,2-b]pyridazin-4-yl)pyrrolidine-3-carbonitrile trifluoroacetate]
> 100	> 10000	1000 to 5000	5000 to 10000	C[C@@H]1CN(c2ccnn3cc(-c4nnc5n4CCCC5)cc23)C(=O)[C@]1(C#N)C1CC1 [Example 105, (3R,4S)-3-cyclopropyl-4-methyl-2-oxo-1-(6-(5,6,7,8-tetrahydro-[1,2,4]triazolo[4,3-a]pyridin-3-yl)pyrrolo[1,2-b]pyridazin-4-yl)pyrrolidine-3-carbonitrile trifluoroacetate]
50 to 100	1000 to 5000	> 10000	1000 to 5000	C[C@@H]1CN(c2ccnn3cc(-c4nc5ccccn5n4)cc23)C(=O)[C@]1(C#N)C1CC1 [Example 108, (3R,4S)-1-(6-([1,2,4]triazolo[1,5-a]pyridin-2-yl)pyrrolo[1,2-b]pyridazin-4-yl)-3-cyclopropyl-4-methyl-2-oxopyrrolidine-3-carbonitrile trifluoroacetate]
50 to 100	1000 to 5000	5000 to 10000	1000 to 5000	Cc1ccc2nc(-c3cc4c(N5C[C@@H](C)[C@@](C#N)(C6CC6)C5=O)ccnn4c3)nn2c1 [Example 109, (3R,4S)-3-cyclopropyl-4-methyl-1-(6-(6-methyl-[1,2,4]triazolo[1,5-a]pyridin-2-yl)pyrrolo[1,2-b]pyridazin-4-yl)-2-oxopyrrolidine-3-carbonitrile trifluoroacetate]
20 to 50	100 to 1000	1000 to 5000	100 to 1000	Cc1csc(-c2cc3c(N4C[C@@H](C)[C@@](C#N)(C5CC5)C4=O)ccnn3c2)n1 [Example 113, (3R,4S)-3-cyclopropyl-4-methyl-1-(6-(4-methylthiazol-2-yl)pyrrolo[1,2-b]pyridazin-4-yl)-2-oxopyrrolidine-3-carbonitrile trifluoroacetate]
